Source: ChEMBL document CHEMBL1201862, “PubChem BioAssay data set” (2004)
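1) Cells in 96-well plates. 2) Compound, 48 h, 5 concentrations. 3) Linear interpolation between surrounding doses. 4) Unreached endpoint = highest concentration. Here, GI50 denotes the concentration required for 50% inhibition of growth.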 Active and inactive are the calls of the source. No stated cut-off is given here; in the data, active = GI50 up to about 1.1 µM and inactive = higher. Residues, ends and D or L forms follow the SMILES beside them. *: point of attachment. Cbz = O=C(OCc1ccccc1)*; Boc = CC(C)(C)OC(=O)*; OSu = O=C1CCC(=O)N1O*; Bn = c1ccc(C*)cc1

Columns and labels:
Assay in all cases: NCI tumour cell line growth inhibition, 48 h
786-0 = system: 786-0
A498 = system: A498
IGROV-1 = system: IGROV-1
MCF7 = system: MCF7
MDA-N = system: MDA-N
Malme-3M = system: Malme-3M
NCI-H226 = system: NCI-H226
NCI-H23 = system: NCI-H23
NCI-H522 = system: NCI-H522
OVCAR-5 = system: OVCAR-5
SF-295 = system: SF-295
SK-MEL-28 = system: SK-MEL-28
SK-MEL-5 = system: SK-MEL-5
SN12C = system: SN12C
SW-620 = system: SW-620
TK-10 = system: TK-10
UO-31 = system: UO-31
HL-60 = system: HL-60
HOP-92 = system: HOP-92

SMILES | GI50 (786-0) | GI50 (A498) | GI50 (IGROV-1) | GI50 (MCF7) | GI50 (MDA-N) | GI50 (Malme-3M) | GI50 (NCI-H226) | GI50 (NCI-H23) | GI50 (NCI-H522) | GI50 (OVCAR-5) | GI50 (SF-295) | GI50 (SK-MEL-28) | GI50 (SK-MEL-5) | GI50 (SN12C) | GI50 (SW-620) | GI50 (TK-10) | GI50 (UO-31) | GI50 (HL-60) | GI50 (HOP-92)
N#CC1C(=O)Nc2sc(C(=O)c3ccc(Br)cc3)c(N)c2C12CCCCC2 (configuration not stated) | 31.4 µM (inactive) | 20.1 µM (inactive) | 20.2 µM (inactive) | 16.5 µM (inactive) | 17 µM (inactive) | 26.1 µM (inactive) | 7.8 µM (inactive) | 25 µM (inactive) | 18.3 µM (inactive) | 40.5 µM (inactive) | 30.5 µM (inactive) | 16 µM (inactive) | 14.6 µM (inactive) | 27.9 µM (inactive) | 16.6 µM (inactive) | 33.2 µM (inactive) | 16.8 µM (inactive) |  | 
C[C@H](CSC(=O)c1ccccc1)C(=O)N1c2ccccc2C[C@H]1C(=O)O | > 10 µM (inactive) | > 100 µM (inactive) | > 100 µM (inactive) | 46 µM (inactive) | > 100 µM (inactive) |  | > 100 µM (inactive) | > 100 µM (inactive) | 30.4 µM (inactive) | > 100 µM (inactive) | > 100 µM (inactive) | > 100 µM (inactive) | 67.8 µM (inactive) | > 100 µM (inactive) | 35.2 µM (inactive) | > 100 µM (inactive) | 86.3 µM (inactive) | 33.7 µM (inactive) | 
O=C(CNS(=O)(=O)Cc1ccccc1)NNc1ccccc1 | > 100 µM (inactive) |  | 72.8 µM (inactive) | > 74.8 µM (inactive) | 15.7 µM (inactive) | > 100 µM (inactive) | > 100 µM (inactive) | > 100 µM (inactive) |  | > 100 µM (inactive) | 4.02 µM (inactive) | > 100 µM (inactive) | 80 µM (inactive) | > 100 µM (inactive) | 8.05 µM (inactive) | > 100 µM (inactive) | > 100 µM (inactive) | 3.44 µM (inactive) | > 100 µM (inactive)
CC(O)CNC(=O)Nc1c(C(F)(F)F)cc(-c2ccccc2)[nH]c1=O (configuration not stated) | > 100 µM (inactive) | > 100 µM (inactive) | > 100 µM (inactive) | > 100 µM (inactive) |  | > 100 µM (inactive) | > 100 µM (inactive) | > 100 µM (inactive) | > 100 µM (inactive) | > 100 µM (inactive) | > 100 µM (inactive) | > 100 µM (inactive) | > 100 µM (inactive) | > 100 µM (inactive) | > 100 µM (inactive) | > 100 µM (inactive) | > 100 µM (inactive) | 0.343 µM (active) | > 100 µM (inactive)
Cc1csc(NNC(N)=O)n1 | > 100 µM (inactive) |  | > 100 µM (inactive) | > 100 µM (inactive) | > 100 µM (inactive) |  | > 100 µM (inactive) | > 100 µM (inactive) | > 100 µM (inactive) | > 100 µM (inactive) | > 100 µM (inactive) | > 100 µM (inactive) | > 100 µM (inactive) | > 100 µM (inactive) | > 100 µM (inactive) | > 100 µM (inactive) | > 100 µM (inactive) | > 100 µM (inactive) | > 100 µM (inactive)
C[N+](C)(C)CC(=O)N/N=C(/CC(=O)CC(C1=C(O)c2ccccc2OC1)c1ccccc1)C(=O)Nc1cccc(Cl)c1 (configuration not stated) | > 100 µM (inactive) | > 100 µM (inactive) | > 100 µM (inactive) | > 100 µM (inactive) |  |  | > 100 µM (inactive) | > 100 µM (inactive) | > 100 µM (inactive) | > 100 µM (inactive) | > 100 µM (inactive) | > 100 µM (inactive) | > 100 µM (inactive) | > 100 µM (inactive) | > 100 µM (inactive) | > 100 µM (inactive) | > 100 µM (inactive) | > 100 µM (inactive) | > 100 µM (inactive)
CC(C)[Si](OC1=C(c2ccccc2)C(NC(=O)/C=C/c2ccc([N+](=O)[O-])cc2)CCC1)(C(C)C)C(C)C (configuration not stated) | > 100 µM (inactive) | > 100 µM (inactive) | > 100 µM (inactive) | > 100 µM (inactive) |  | > 100 µM (inactive) | > 100 µM (inactive) | > 100 µM (inactive) | > 100 µM (inactive) | > 100 µM (inactive) | > 100 µM (inactive) |  | > 100 µM (inactive) |  | > 100 µM (inactive) | > 100 µM (inactive) | > 100 µM (inactive) | > 100 µM (inactive) | > 100 µM (inactive)
N#Cc1nc(CCc2nc(C#N)c(N)o2)oc1N | > 10 µM (inactive) |  | > 10 µM (inactive) | > 10 µM (inactive) | > 10 µM (inactive) | > 10 µM (inactive) | > 10 µM (inactive) | > 10 µM (inactive) | > 10 µM (inactive) | > 10 µM (inactive) | > 10 µM (inactive) | > 10 µM (inactive) | > 10 µM (inactive) | > 10 µM (inactive) | > 10 µM (inactive) | > 10 µM (inactive) | > 10 µM (inactive) | > 10 µM (inactive) | > 10 µM (inactive)
CC1(C)CC(=O)c2c(nc3ccc4ccccc4c3c2-c2ccc(NC(=O)CCC(=O)Nc3ccc(-c4c5c(nc6ccc7ccccc7c46)CC(C)(C)CC5=O)cc3)cc2)C1 | > 100 µM (inactive) |  | > 100 µM (inactive) | > 100 µM (inactive) | > 100 µM (inactive) |  | > 100 µM (inactive) |  | > 100 µM (inactive) | > 100 µM (inactive) | > 100 µM (inactive) | > 100 µM (inactive) | > 100 µM (inactive) | > 100 µM (inactive) | > 100 µM (inactive) | > 100 µM (inactive) | > 100 µM (inactive) | > 100 µM (inactive) | 
COc1cc(C2C(C(=O)Nc3cc(F)c(F)cc3F)=C(C)NC(C)=C2C(=O)Nc2cc(F)c(F)cc2F)ccc1O | 26.7 µM (inactive) | 19.4 µM (inactive) | 23.1 µM (inactive) |  |  | 24.7 µM (inactive) | 23.6 µM (inactive) | 17.1 µM (inactive) | 13.3 µM (inactive) | 17.4 µM (inactive) | 21.3 µM (inactive) | 25.4 µM (inactive) | 18.5 µM (inactive) | 17.7 µM (inactive) | 37.7 µM (inactive) | 28.3 µM (inactive) | 8.04 µM (inactive) | 15.7 µM (inactive) | 0.982 µM (active)
COc1ccc2c(c1)CN1C(=N2)CSC1c1ccccc1Cl (configuration not stated) | 17.9 µM (inactive) |  | 14.9 µM (inactive) | 25.9 µM (inactive) | 17.1 µM (inactive) | 19.1 µM (inactive) | 12.6 µM (inactive) | 1.66 µM (inactive) | 12.9 µM (inactive) | 18.5 µM (inactive) | 24.7 µM (inactive) | 11.1 µM (inactive) | 14.4 µM (inactive) | 19.1 µM (inactive) | 17.4 µM (inactive) | 23.7 µM (inactive) | 11.5 µM (inactive) | 6.55 µM (inactive) | 11.3 µM (inactive)
COc1ccc(N2C(=O)C3CC4=CC(=O)C[C@H]4[C@H]32)cc1 (some centres not stated) | 26.3 µM (inactive) | > 100 µM (inactive) |  | 67.6 µM (inactive) | 18.5 µM (inactive) |  | 42.8 µM (inactive) | > 100 µM (inactive) |  | 88.1 µM (inactive) | > 100 µM (inactive) | > 100 µM (inactive) |  | 29.4 µM (inactive) | 66.1 µM (inactive) | 58.7 µM (inactive) | 37.2 µM (inactive) |  | 
COc1ccc(/N=N/c2c(-c3c(OC)cc4occc4c3OC)[nH]c(=O)c(C#N)c2C)cc1 | > 100 µM (inactive) |  | 76.2 µM (inactive) | > 100 µM (inactive) | > 100 µM (inactive) | 55 µM (inactive) | > 100 µM (inactive) | > 100 µM (inactive) | > 100 µM (inactive) | > 100 µM (inactive) | > 100 µM (inactive) | > 100 µM (inactive) | > 100 µM (inactive) | > 100 µM (inactive) | > 100 µM (inactive) | > 100 µM (inactive) | > 100 µM (inactive) | > 100 µM (inactive) | > 100 µM (inactive)
CN1CCN(c2ccc3nc(C4=C(O)C(=O)c5c(nc(CCl)n5C)C4=O)[nH]c3n2)CC1 | 8.61 µM (inactive) | 11.5 µM (inactive) | 8.38 µM (inactive) | 8.89 µM (inactive) | 9.75 µM (inactive) | 3.66 µM (inactive) | 14.7 µM (inactive) | 11.5 µM (inactive) | 1.56 µM (inactive) | 14.2 µM (inactive) | 16.7 µM (inactive) | 19.3 µM (inactive) | 24.2 µM (inactive) | 9.98 µM (inactive) | 20 µM (inactive) |  | 2.47 µM (inactive) | > 50 µM (inactive) | 
COc1ccc(N2C(=O)C3c4[nH]c5ccc(OCc6ccccc6)cc5c4C4CCC(C(C)(C)C)CC4C3C2=O)cc1 (configuration not stated) | 27.9 µM (inactive) | > 100 µM (inactive) | > 100 µM (inactive) | 85.3 µM (inactive) | > 100 µM (inactive) | 25.7 µM (inactive) | > 100 µM (inactive) | > 100 µM (inactive) | > 100 µM (inactive) | > 100 µM (inactive) | > 100 µM (inactive) | 65.6 µM (inactive) | > 100 µM (inactive) | 78.5 µM (inactive) | 94.6 µM (inactive) | 54.5 µM (inactive) |  | > 100 µM (inactive) | 
CC(C)(C)OC(=O)NC(Cc1ccc(OCc2ccccc2)cc1)C(=O)NC(CCCCNC(=O)OCc1ccccc1)C(=O)NC(CCCCNC(=O)OCc1ccccc1)C(=O)ON1C(=O)CCC1=O (configuration not stated) (Boc-Tyr(Bn)-Lys(Cbz)-Lys(Cbz)-OSu; configuration not given here) | 20.8 µM (inactive) |  | 31.5 µM (inactive) | 18.9 µM (inactive) | 16.6 µM (inactive) | 54.3 µM (inactive) |  | 28.6 µM (inactive) | 16.4 µM (inactive) | 36.7 µM (inactive) | 24 µM (inactive) | 30.6 µM (inactive) | 26 µM (inactive) | > 10 µM (inactive) |  | > 100 µM (inactive) | > 100 µM (inactive) |  | 51.2 µM (inactive)
